Measurements as given in US10077289B2, “Cyclosporins modified on the MeBmt sidechain by heterocyclic rings” (priority 2015, dated 2018).
In brackets after ≈: the same amount, converted by molar mass. Read-outs that look alike come from different tables or passages of the source.

Assays:
[1] = biological target: calcineurin/cyclophilin A (Homo sapiens (Human), UniProt P62937+P63098+Q08209); test: Calcineurin Phosphatase (CaN) Assay (+CypA); assay type: biochemical; conditions: in the presence of Cyp A, 1:1 complex with inhibitor; read-out: Calcineurin Phosphatase (CaN) Assay (+CypA) IC50
Text: Calcineurin Phosphatase (CaN) Assay
The calcineurin phosphatase assay is a means for estimating the immunosuppressive potential of a test compound. Calcineurin is a serine-threonine protein phosphatase that on activation dephosphorylates members of the nuclear factor of activated T cells (NFAT), which are important in T lymphocyte activation.
To investigate the immunosuppressive potential of exemplary compounds of Formula I, which are cyclosporin analogs, their ability to inhibit calcineurin activity was measured in the presence and absence of Cyp A.
The CaN assay kit used is based on a colorimetric assay for measuring calcineurin phosphatase activity, and it is commercially available (Enzo Life Sciences and Calbiochem). Calmodulin is also required for calcineurin activity and RII phosphopeptide is used as an efficient peptide substrate for calcineurin. […] The detection of free phosphate released is based on the classic Malachite green assay.
Enzo Life Sciences CaN Assay Kit: BML-AK804
Malachite Green: BIOMOL Green™ reagent
Calmodulin (Human, recombinant): was thawed on ice, diluted 1:50 with 2× assay buffer, and then stored on ice.
Calcineurin: was thawed quickly, stored on ice immediately, diluted 1:12.5 with 1× assay buffer, and then stored on ice.
R-II Substrate: 915 μL ultrapure water (UPW) was added to the 1.5 mg vial substrate to give a final concentration of 0.75 mM.
Inhibitors: 2.5 mM inhibitor in 100% DMSO.
Cyp A: recombinant human CypA (Sigma C3805), 1 mg/ml; Recombinant 6-His tagged CypA prepared by the University of Edinburgh was also used.
Inhibitor dilutions: inhibitor compounds were diluted in UPW in polypropylene low-binding 96 well plates at 5× the final assay concentration.
Assay Setup: using the half area 96 well plates supplied with the kit, 10 μl UPW was added to duplicate wells to provide the non-inhibited control. 10 μl of the inhibitor or the inhibitor/Cyp A complex was added to the appropriate sample wells. 25 μl of the 2× assay buffer with CaM was added to all wells, then 5 μl of CaN was added to all wells (40 U per well final concentration) except duplicate ‘no calcineurin blank’ wells to which 5 μL 1× assay buffer was added. The assay plate was placed in an oven at 30° C. for 15 minutes to equilibrate to the reaction temperature. The reaction was started by the addition of 10 μl RII-peptide (0.15 mM final concentration). The reaction was allowed to proceed at 30° C. for a time period in which the reaction is linear for about 60 minutes. The reaction was then terminated by adding 100 μl of the Malachite Green reagent. The color was allowed to develop for 15-30 minutes at room temperature before the absorbance at 620 nm was measured using a plate reader (Molecular Devices—SpectraMax M5). The data were analyzed by subtracting ‘no Calcineurin blank’ from all the absorbance readings and plotting the background corrected absorbances against Log10 inhibitor concentration. A sigmoidal-dose response curve was fitted to the data using GraphPad Prism Software.
It exerts its immunosuppressive activity by binding to cyclophilin A to form a complex, which then binds to calcineurin and thereby inhibits calcineurin activity.

[2] = Water Solubility Assay (measured in pH 7.8 buffer); assay type: physicochemical; conditions: kinetic from dmso stock, 25 °C
Description: Water Solubility Assay (Measured in pH 7.8 Buffer)
The aqueous solubility of a compound of Formula I in buffer (pH 7.8) was measured by recording the onset of precipitation of the compound as a function of increasing concentration. The onset of precipitation, if it occurred, was detected by an increase in absorbance at 650 nm.
Assay Buffer: 35 mM HEPES pH 7.8
Stock solutions of Control and Test Compounds: 10 mM in 100% DMSO.
10 mM stock solutions of control and test compounds were prepared in 100% DMSO.
Assay buffer (247.5 μl) was placed into flat bottomed transparent 96-well plate. For blank samples DMSO (2.5 μl) was added. For test and control samples 2.5 μl of the appropriate DMSO dilution stocks were added to the appropriate well. All test and control compounds were performed in triplicate.
The plates were sealed with adhesive plate seal and shaken at 250 rpm at 25° C. for 18 h on a plate shaker. After incubation the plate seals were taken off and any bubbles observed in wells removed. The plates were read on a SpectraMaxM5 with a 5 s pre-shake at 650 nm. Data files were transferred to the appropriate worksheet and the solubility range of the compounds was calculated from the data. The values shown in the Tables indicate the concentration in μM (micromolar) at which the compound remains in solution.

[3] = biological target: Human recombinant cyclophilin A (Cyp A) (Homo sapiens (Human), UniProt P62937); test: Protease-free PPIase assay
Description: Protease-Free PPIase Assay
The protease-free PPIase assay measures the rate of cis to trans conversion of a peptide substrate catalyzed by the enzyme cyclophilin A. Addition of a cyclophilin A inhibitor (e.g., a test compound) slows the catalyzed rate and a Ki value is obtained.
35 mM HEPES pH 7.8, filtered through a 0.2 μm filter. 50 μM DTT was added prior to use each day and then the buffer was stored on ice.
Human recombinant cyclophilin A (Cyp A) (Sigma C3805) enzyme was diluted to 1 μM with enzyme dilution buffer (20 mM HEPES pH 7.8, 40% glycerol, 50 μM DTT and 1 μM BSA) and stored at −20° C.
Succinimide-Ala-Ala-Pro-Phe-p-nitroanilide (SUC-AAPF-pNA) (from Bachem AG, L-1400), 20 mg/ml prepared in 0.5 M LiCl in trifluoroethanol.
The temperature is monitored by the use of a temperature probe. To prevent UV degradation of test compounds, the light below 290 nm was blocked using a glass slide in the light path. 1.5 ml of the assay buffer was put into a 3 ml quartz cuvette and cooled to 10.0±0.1° C. while stirring (vigorous but not so fast as to produce cavitation). The inhibitor was diluted in 100% DMSO, and then added to the assay to a maximum final concentration of 0.5% DMSO in the assay. A blank spectrum was obtained, then 3 μL of enzyme was added (2 nM final concentration) and then 3 μL substrate (60 μM final concentration) added. The absorbance was measured at 330 nm for 300 s or 500 s for blank runs (NOTE: the substrate must be added in one quick injection and the measurements started immediately to minimize mixing errors).
A first order rate equation was fitted to the absorbance data, for each concentration of inhibitor, to obtain the rate constant (the first 10 to 15 seconds were excluded as mixing causes errors in this portion of curve). The catalytic rate was calculated from the enzymatic rate constant minus the background rate constant. An exponential curve was generated using the catalytic rate constants versus the inhibitor concentration to obtain the Ki value for the inhibitor. The Ki value is indicative of the binding affinity between the test compound and cyclophilin A.

IC50 [1] | solubility at 18 h ([2]; pH 7.8, aqueous buffer) | Ki [3] | Structure (SMILES) | solubility at 18 h ([2]; 35 mM HEPES buffer pH 7.8, aqueous buffer, 35 mM HEPES pH 7.8, 1% DMSO, 18 h, read-out: Water Solubility Assay, concentration at which the compound remains in solution) | Ki ([3]; read-out: Protease-free PPIase Assay Ki, human recombinant Cyp A, 10 °C)
9250 nM | 25 to 50 µM (≈ 32.4 to 64.8 µg/mL) | 3.9 nM | CC[C@H]1NC(=O)[C@@H]([C@H](O)[C@H](C)CCCc2ccnc(C)c2)N(C)C(=O)[C@@H](C(C)C)N(C)C(=O)[C@@H](CC(C)C)N(C)C(=O)[C@@H](CC(C)C)N(C)C(=O)[C@H](C)NC(=O)[C@@H](C)NC(=O)[C@@H](CC(C)C)N(C)C(=O)[C@@H](C(C)C)NC(=O)[C@H](CC(C)C)N(C)C(=O)[C@@H](C)N(C)C1=O [Compound 17, [(2S,3R,4R)-3-Hydroxy-4-methyl-2-(methylamino)-7-(2-methyl-pyridin-4-yl)-heptanoic acid]^1 [(R)-methyl-Sar]^3 cyclosporin A] |  | 
5800 nM | 50 to 75 µM (≈ 64.1 to 96.2 µg/mL) | 2.2 nM | CC[C@H]1NC(=O)[C@@H]([C@H](O)[C@H](C)CCCc2cnccn2)N(C)C(=O)[C@@H](C(C)C)N(C)C(=O)[C@@H](CC(C)C)N(C)C(=O)[C@@H](CC(C)C)N(C)C(=O)[C@H](C)NC(=O)[C@@H](C)NC(=O)[C@@H](CC(C)C)N(C)C(=O)[C@@H](C(C)C)NC(=O)[C@H](CC(C)C)N(C)C(=O)[C@@H](C)N(C)C1=O [Compound 18, [(2S,3R,4R)-3-Hydroxy-4-methyl-2-(methylamino)-7-(pyrazin-2-yl)-heptanoic acid]^1 [(R)-methyl-Sar]^3 cyclosporin A] |  | 
> 10000 nM | > 100 µM | 5.7 nM | CC[C@H]1NC(=O)[C@@H]([C@H](O)[C@H](C)CCCc2cn(C)cn2)N(C)C(=O)[C@@H](C(C)C)N(C)C(=O)[C@@H](CC(C)C)N(C)C(=O)[C@@H](CC(C)C)N(C)C(=O)[C@H](C)NC(=O)[C@@H](C)NC(=O)[C@@H](CC(C)C)N(C)C(=O)[C@@H](C(C)C)NC(=O)[C@H](CC(C)C)N(C)C(=O)[C@@H](C)N(C)C1=O [Compound 20, [(2S,3R,4R)-3-Hydroxy-7-(1-methyl-1H-imidazol-4-yl)-4-methyl-2-(methylamino)heptanoic acid]^1 [(R)-methyl-Sar]^3 cyclosporin A] |  | 
> 10000 nM | > 100 µM | 3.2 nM | CC[C@H]1NC(=O)[C@@H]([C@H](O)[C@H](C)CCCc2cccnn2)N(C)C(=O)[C@@H](C(C)C)N(C)C(=O)[C@@H](CC(C)C)N(C)C(=O)[C@@H](CC(C)C)N(C)C(=O)[C@H](C)NC(=O)[C@@H](C)NC(=O)[C@@H](CC(C)C)N(C)C(=O)[C@@H](C(C)C)NC(=O)[C@H](CC(C)C)N(C)C(=O)[C@@H](C)N(C)C1=O [Compound 21, [(2S,3R,4R)-3-Hydroxy-4-methyl-2-(methylamino)-7-(pyridazin-3-yl)-heptanoic acid]^1 [(R)-methyl-Sar]^3 cyclosporin A] |  | 
1160 nM | > 100 µM | 3.2 nM | CC[C@H]1NC(=O)[C@@H]([C@H](O)[C@H](C)CCCc2ncccn2)N(C)C(=O)[C@@H](C(C)C)N(C)C(=O)[C@@H](CC(C)C)N(C)C(=O)[C@@H](CC(C)C)N(C)C(=O)[C@H](C)NC(=O)[C@@H](C)NC(=O)[C@@H](CC(C)C)N(C)C(=O)[C@@H](C(C)C)NC(=O)[C@H](CC(C)C)N(C)C(=O)[C@@H](C)N(C)C1=O [Compound 22, [(2S,3R,4R)-3-Hydroxy-4-methyl-2-(methylamino)-7-(pyrimidin-2-yl)-heptanoic acid]^1 [(R)-methyl-Sar]^3 cyclosporin A] |  | 
3340 nM | > 100 µM | 2.1 nM | CC[C@H]1NC(=O)[C@@H]([C@H](O)[C@H](C)CCCc2ccnn2C)N(C)C(=O)[C@@H](C(C)C)N(C)C(=O)[C@@H](CC(C)C)N(C)C(=O)[C@@H](CC(C)C)N(C)C(=O)[C@H](C)NC(=O)[C@@H](C)NC(=O)[C@@H](CC(C)C)N(C)C(=O)[C@@H](C(C)C)NC(=O)[C@H](CC(C)C)N(C)C(=O)[C@@H](C)N(C)C1=O [Compound 23, [(2S,3R,4R)-3-Hydroxy-4-methyl-2-(methylamino)-7-(2-methylpyrazol-3-yl)-heptanoic acid]^1 [(R)-methyl-Sar]^3 cyclosporin A] |  | 
1460 nM | > 100 µM | 3.8 nM | CC[C@H]1NC(=O)[C@@H]([C@H](O)[C@H](C)CCCc2ccn(C)n2)N(C)C(=O)[C@@H](C(C)C)N(C)C(=O)[C@@H](CC(C)C)N(C)C(=O)[C@@H](CC(C)C)N(C)C(=O)[C@H](C)NC(=O)[C@@H](C)NC(=O)[C@@H](CC(C)C)N(C)C(=O)[C@@H](C(C)C)NC(=O)[C@H](CC(C)C)N(C)C(=O)[C@@H](C)N(C)C1=O [Compound 25, [(2S,3R,4R)-3-Hydroxy-4-methyl-2-(methylamino)-7-(1-methylpyrazol-3-yl)heptanoic acid]^1 [(R)-methyl-Sar]^3 cyclosporin A] |  | 

Structure (SMILES) | IC50 [1] | solubility at 18 h ([2]; pH 7.8, aqueous buffer) | Ki [3] | solubility at 18 h ([2]; 35 mM HEPES buffer pH 7.8, aqueous buffer, 35 mM HEPES pH 7.8, 1% DMSO, 18 h, read-out: Water Solubility Assay, concentration at which the compound remains in solution) | Ki ([3]; read-out: Protease-free PPIase Assay Ki, human recombinant Cyp A, 10 °C)
CC[C@H]1NC(=O)[C@@H]([C@H](O)[C@H](C)CCCc2ccc(OC)cn2)N(C)C(=O)[C@@H](C(C)C)N(C)C(=O)[C@@H](CC(C)C)N(C)C(=O)[C@@H](CC(C)C)N(C)C(=O)[C@H](C)NC(=O)[C@@H](C)NC(=O)[C@@H](CC(C)C)N(C)C(=O)[C@@H](C(C)C)NC(=O)[C@H](CC(C)C)N(C)C(=O)[C@@H](C)N(C)C1=O [Compound 16, [(2S,3R,4R)-3-Hydroxy-4-methyl-2-(methylamino)-7-(5-methoxy-pyridin-2-yl)-heptanoic acid]^1 [(R)-methyl-Sar]^3 cyclosporin A] | > 10000 nM |  |  | 25 to 50 µM (≈ 32.8 to 65.6 µg/mL) | 0.72 nM
